Experimental data taken from patent US12398158B2, “Fluorescent GTP analogues and use” (CISBIO BIOASSAYS, priority 2019, dated 2025).

How the values were obtained:
[1] = test system: Gαi protein; test: TR-FRET (HTRF) binding test of GTP analog-donor / anti-Gαi antibody DSV36S-d2, CHO-K1 Delta Opioid membranes
Text: (§1) • membrane preparations of cells expressing GPCRs and the G-alpha-i protein (Gαi) were purchased from Perkin Elmer or Euroscreen. The table below lists the cell backgrounds and references of the different samples used:
(§2) • the DSV36 antibody was generated by Cisbio Bioassays and is available rom Cisbio Bioassays on request (under the reference DSV36S). The antibody was labeled with the fluorescent probe d2 (red acceptor) compatible for TR-FRET detection. The DSV36S antibody binds at the switch II of the Gαi protein. • the GTP and GTPγS nucleotides were purchased from Sigma Aldrich (respective catalog references G8877 and G8634). • the 384-well, low volume, white plates with a white background were purchased from Greiner Bio One (catalog reference 784075). • the non-hydrolyzable/slowly hydrolyzable GTP analogs labeled with donor fluorophores of lanthanide complex type were synthesized at Cisbio Bioassays. Methods Preparation of the Reagents
(§3) Except for other specific mention, all the reagents were diluted in 50 mM Tris HCl pH 7.4, 10 mM MgCl2, 0.1% BSA, 10 mM NaCl, buffer. The membranes were prepared 4× to distribute 1 or 10 μg/well (amount specified in the key of each figure). The GTPγS nucleotide (non-specific signal condition) was prepared 6.67× to obtain a final concentration in the wells of 100 μM. The anti-Gαi antibody DSV36S-d2 used for the detection was prepared 4× to target the final concentration in the wells of 10 nM. The non-hydrolyzable/slowly hydrolyzable GTP analogs labeled with fluorescent donor probes (lanthanide complexes) were prepared 4× to target the final concentrations in the wells mentioned in the keys of each figure.
• Membranes expressing GPCR and the G protein: 5 μl • GTPγS buffer or nucleotide (for the non-specific signal condition): 3 μl • Non-hydrolyzable/slowly hydrolyzable GTP analog-donor: 5 μl • Anti-Gαi antibody-acceptor (DSV36S-d2): 5 μl • Buffer: 2 μl
(§4) The non-specific signal (background fluorescence noise) was measured with wells containing an excess of GTPγS (10 or 100 μM).
(§5) The plates were incubated at 21° C. for 20 h and then the HTRF signal was measured on the PHERAstar reader (BMG Labtech) with the following configuration: • Module: HTRF (Excitation 337 nm, Emission 665 nm and 620 nm) • Excitation: laser, 40 flashes or lamp, 100 flashes • Reading window: delays: 60 μs-Integration: […] Signal Processing
From the raw signals at 665 nm and 620 nm, the HTRF Ratio was calculated according to the following formula: HTRF Ratio=[(Signal at 665 nm)/(Signal at 620 nm)]×10 000 Test Format
FIG. 2 illustrates the test format used to detect the binding of the compounds of formula (I) to the G protein. […] When the two FRET partners (test compound and anti-Gα protein antibody) bind to the same Gα protein, a FRET signal appears (left part of the figure: “Total Signal”) and is distinguished from the non-specific signal (background noise corresponding to the right part of the figure: “Non-Specific Signal”), which comprises a large excess of unlabeled GTPγS (displacement of the fluorescent GTP analog). […]
GTPgN-octyl-C2 was used at a final concentration of 6 nM in the wells. The membranes were incubated in the absence or in the presence of a large excess of GTPγS (100 μM). […]
GTPgN-octyl-C2 was used at a final concentration of 2 or 6 nM in the wells. The membranes were incubated in the absence or in the presence of a large excess of GTPγS (100 μM).

[2] = test system: Gαi protein; test: TR-FRET (HTRF) binding test of GTP analog-donor / anti-Gαi antibody DSV36S-d2, CHO-K1 Dopamine D2S membranes; conditions: CHO-K1 membranes expressing Dopamine D2S GPCR and Gαi, 10 μg per well; analog 6 nM; absence vs presence of GTPγS 100 μM
Text: as §1
• the DSV36 antibody was generated by Cisbio Bioassays and is available rom Cisbio Bioassays on request (under the reference DSV36S). The antibody was labeled with the fluorescent probe d2 (red acceptor) compatible for TR-FRET detection. […]
as §4, §5
(§6) From the raw signals at 665 nm and 620 nm, the HTRF Ratio was calculated according to the following formula: HTRF Ratio=[(Signal at 665 nm)/(Signal at 620 nm)]×10 000 Test Format […]

[3] = test system: Gαi protein; test: TR-FRET (HTRF) binding test of GTP analog-donor / anti-Gαi antibody DSV36S-d2, HEK293 Delta Opioid membranes; conditions: HEK293 membranes expressing Delta Opioid GPCR and Gαi, 1 μg per well; analog 1 nM; absence vs presence of GTPγS 100 μM
Text: as §1, §2
as §3, with “The non-hydrolyzable/slowly hydrolyzable GTP analogs labeled with fluorescent donor probes (lanthanide complexes) were prepared 4× to target the final concentrations in the wells mentioned in the keys of each figure.” left out
as §4, §5, §6

[4] = CHO-K1 membranes expressing Delta Opioid GPCR and Gαi, 10 μg per well, analog 6 nM, absence vs presence of GTPγS 100 μM

Molecule	HTRF Ratio total signal/non-specific signal [1, 4]	HTRF Ratio total signal/non-specific signal [3]	also measured
GTP-gamma-N-octyl-C2 [GTPgN-octyl-C2]	12.4		signal amplitude (S/N), effect of amount of membrane ([1]; CHO-K1 Delta Opioid membranes increased from 1 to 10 μg per well, FIG. 11A): increase in the signal amplitude (S/N) is observed; amplitude of the signal (S/N), effect of analog concentration ([1]; CHO-K1 Delta Opioid membranes, GTPgN-octyl-C2 increased from 2 to 6 nM, FIG. 11B): increase in the amplitude of the signal (S/N) is observed; HTRF Ratio total signal/non-specific signal [2]: 3.8
Nc1nc2c(ncn2[C@@H]2O[C@H](COP(=O)(O)OP(=O)(O)OP(=O)(O)Nc3ccc(-c4cc(-c5cccc(CN(CC(=O)O)CC(=O)O)n5)nc(-c5cccc(CN(CC(=O)O)CC(=O)O)n5)c4)cc3)C(O)[C@@H]2O)c(=O)[nH]1 (some centres unmarked) [GTPgN—C3, GTP-gamma-N—C3]		1.7	
GTP-gamma-N-octyl-C11 [GTPgN-octyl-C11]	7.6		
GTP-gamma-O-hexyl-C2 [GTPgO-hexyl-C2]	7.1		
Nc1nc2c(ncn2[C@@H]2O[C@H](COP(=O)(O)OP(=O)(O)OP(=O)(O)NCCCCCCCCNc3nc(Cl)nc(Nc4ccc(-c5cc(-c6cccc(CN(CC(=O)O)CC(=O)O)n6)nc(-c6cccc(CN(CC(=O)O)CC(=O)O)n6)c5)cc4)n3)C(O)[C@@H]2O)c(=O)[nH]1 (some centres unmarked) [GTPgN-octyl-C3, GTP-gamma-N-octyl-C3]		1.4	
GTP-gamma-N—C2 [GTPgN—C2]	16.6		
GTP-gamma-N-octyl-thiosuccinimidyl-C2 [GTPgN-octyl-thiosuccinimidyl-C2]			HTRF Ratio total signal/non-specific signal ([1]; CHO-K1 Delta Opioid membranes 10 μg per well, analog 7.5 nM, buffer 60 mM MgCl2, 150 mM NaCl, presence vs absence of membrane preparation): 2.8
GTP-gamma-O-hexyl-C3 [GTPgO-hexyl-C3]		1.3	
